≈ marks a conversion by molar mass, not a printed value.
Experiment: Solubility in isotonic phosphate buffer containing PEG 400
Assay type: physicochemical
Experimental: For use of clotrimazole, solubility in phosphate buffer is an issue and therefore, 20% and 40% PEG 400 are added to the phosphate buffer and the solubility is determined.

`Clc1ccccc1C(c1ccccc1)(c1ccccc1)n1ccnc1` [clotrimazole, Clotrimazole] showed a solubility (organic solvent or mixture, isotonic phosphate buffer (pH 6.8) containing 20% PEG 400) of about 60 µg/mL (≈ 174 µM) and a solubility (pH 6.8, organic solvent or mixture, phosphate buffer containing 40% PEG 400) of about 430 µg/mL (≈ 1250 µM).

Source: patent publication US5578315A, “Mucosal adhesive device for long-acting delivery of pharmaceutical combinations in oral cavity” (Rutgers, The State University of New Jersey, priority 1993, dated 1996)
